Consider 22 compounds from the SangsterLogP compilation.

This data set in a line: method code SF-AS, from PMID: 6637502. To be noted: pH 5.0.
`O=c1c2c(nc3ccccn13)CCCC2` registered a logD of 1.63.

`O=c1c2ccccc2nc2n1CCCCC2` displayed a logD of 1.98.

The compound `CC1CCCn2c1nc1c(c2=O)CCCC1` (configuration not stated) yielded a logD of 1.76.

In the case of `Cc1ccn2c(=O)c3c(nc2c1)CCC3`, the logD came to 1.65.

`Cc1cccn2c(=O)ccnc12` had a logD of 0.79.

`Cc1ccn2c(=O)c3c(nc2c1)CCCC3` gave a pH-dependent lipophilicity (logD) of 1.86.

`Cc1cccc2nc3c(c(=O)n12)CCCC3` returned a logD of 1.91.

Compound `CC1CCn2c(nc3c(c2=O)CCCC3)C1` (configuration not stated) returned a logD of 1.67.

`CC1CCc2nc3c(c(=O)n2C1)CCCC3` (configuration not stated): the pH-dependent lipophilicity (logD) turned out to be 1.7.

`Cc1ccc2nccc(=O)n2c1` returned a pH-dependent lipophilicity (logD) of 0.61.

On to `Cc1ccc2nc3c(c(=O)n2c1)CCCC3`, for which the logD is 2.07.

Regarding `O=c1c2c(nc3n1CCCCC3)CCCCC2`, the logD is 2.18. The logD values of the last two compounds are within 0.2 log units of each other.

Consider `Cc1ccn2c(=O)ccnc2c1`, for which the pH-dependent lipophilicity (logD) was determined as 0.56.

Regarding `Cc1cccn2c(=O)c3c(nc12)CCCC3`, the pH-dependent lipophilicity (logD) came to 2.44.

`Cc1ccc2nc3c(c(=O)n2c1)CCC3` showed a pH-dependent lipophilicity (logD) of 1.61.

In turn, `Cc1nc2n(c(=O)c1C)CCCC2` came in with a logD of 0.6.

`Cc1cnc2n(c1=O)CCCC2`: the logD turned out to be 0.4.

Turning to `Cc1cnc2n(c1=O)C(C)CCC2` (configuration not stated), the logD stood at 0.82.

On to `O=c1c2c(nc3n1CCCCC3)CCC2`, for which the logD was 1.25.

For the compound `CC1CCCc2nc3c(c(=O)n21)CCCC3` (configuration not stated), the log distribution coefficient (logD) was found to be 1.67.

In turn, `O=c1c2c(nc3n1CCC3)CCC2` returned a logD of 0.22.

With `Cc1cccc2nc3c(c(=O)n12)CCC3`, the logD was determined as 1.77.
